SMILES strings stand for the structures.

A short description of data set [1]: Sun screening properties (UV absorption). The data set is classed as physicochemical. Conditions: 92.8% acetonitrile+7.2% DMSO. From the text: This compound has the following sun screening properties:
λmax=350 nm (92.8% acetonitrile+7.2% DMSO)

The nature of data set [2]: Photostability: irradiation of an oily film in a solar simulator. It counts as physicochemical. Particulars: one hour of irradiation in a solar simulator (UVA=18.6 mW/cm^2, UVB=0.6 mW/cm^2); oily film containing 0.5% of the compound.
The nature of data set [3]: RPE (Resonance Paramagnetic Electronic) study of pro-oxidizing activity under irradiation. Particulars: formulated medium, irradiation under the same conditions as the photostability test (solar simulator).

For `O=C1Nc2ccccc2/C1=C1\CCCN1` [Compound 3, 3-Pyrrolidin-2-ylidene-1,3-dihydroindol-2-one], the λmax in data set [1] is on record as 328 nm. In data set [1] (at λmax), the εmax was 8100 1.mol^−1.cm^−1.
Compound `CCN1C(=O)/C(=C2/CCCN2C)c2ccccc21` [Compound 1, 1-Ethyl-3-(1-methylpyrrolidin-2-ylidene)-1,3-dihydroindol-2-one] yielded a λmax in data set [1] of 350 nm. In data set [1] (at λmax), the E1% is reported as 722 and the εmax was 17501 1.mol^−1.cm^−1. Moreover, in data set [2], the “residual level of the compound after irradiation” value is listed as 92%. For the same compound, the pro-oxidizing activity entry in data set [3] is “does not manifest any pro-oxidizing activity”.
In data set [1], `CCN1C(=O)/C(=C2/CCCN2)c2ccccc21` [Compound 2, 1-Ethyl-3-pyrrolidin-2-ylidine-1,3-dihydroindol-2-one] returned a λmax of 326 nm. Further, the εmax in data set [1] (at λmax) is 22600 1.mol^−1.cm^−1.

These data come from patent US20040136931A1, “Photoprotective cosmetic compositions comprising 3-(2-azacycloalkylidene)-1,3-dihydroindol-2-one compounds” (SOCIETE L'OREAL S.A., priority 2002, published 2004).
